Data: US20230413808A1, “Bioactive complexes” (priority 2020, published 2023)

Experiments:
[1] = Visual interaction of active ingredient with polyelectrolyte PAA; assay type: physicochemical
Experimental: To determine interaction between polyelectrolytes (PE; Table 1) and active ingredients (AI; Table 2) aqueous stock solutions of about 200 g/L of the PE and of the active ingredients were prepared. The polyelectrolytes were diluted in water and stirred on magnetic stirrer for at least 30 minutes until a homogenous clear solution was obtained (ratios and amounts are presented in Table 4). The active ingredients were dissolved in water on magnetic stirrer or, if they weren't water soluble, suspended in water and milled by adding glass beads (1 mm) in a stainless steel metal beaker until they reach a volume-based average particle size below 20 μm (90% of particles below 20 μm), as determined by laser diffraction. After that the mixture was filtered with a sieve to remove glass beads and the filtrate was used for further analysis.
A polyelectrolyte solution, PAA or chitosan, was added to a 100-150 mL glass beaker, followed by water and an active ingredient solution/suspension. The mixture was stirred for at least 4 hours, and samples were observed after at least 16 hours. The visual observable interactions were divided into five categories (see Table 3). The categories were chosen by comparison to a blank sample containing the same concentration of active ingredient in water but without polyelectrolyte. […] Interactions were studied over a large range of active ingredient to polyelectrolyte ratios, including 10.000:1 (w/w), 1000:1 (w/w), 100:1 (w/w), 10:1 (w/w), 1:1 (w/w), 1:10 (w/w), 1:100 (w/w) and 1:1000) (w/w).

[2] = Visual interaction with polyanion sodium lignosulfonate; assay type: physicochemical; conditions: visible complex formation
Humectancy assay = assay type: physicochemical; conditions: dried at 54° C., then 97% relative humidity at 25° C.; weight after/before x 100
Experimental: The complexes of the interaction assay were used to conduct a humectancy assay. […] After reweighing on an analytical balance, the trays were placed in a climate chamber and stored for at least 2 days at 54° C. or until no further weight change was observed. […] The air tight box was 20 cm×12 cm×7 cm. In the box a chicken wire construct was used to create two levels with 10-20 ml of saturated solution of dipotassium sulfate in a petri dish in a lower level, and the samples in an upper level. Boxes were located into an incubator at 25° C. The boxes were incubated for at least 5 days at 25° C. before use to allow equilibration of temperature and humidity. Hereafter, the trays were reweighed.
The change in humectancy by combining a pesticide and polyelectrolyte is expressed as percent value by multiplying the sample weight after incubation (w2) with 100 divided with the sample weight before incubation (w1) using the following equation: […]
To evaluate the effect of the interaction of the active ingredient and polyelectrolyte on humectancy (synergetic/antagonistic/no effect), the determined Humectancy of the samples containing both active ingredient and polyelectrolyte “Humectancy (blend)” was divided by the theoretical value of Humectancy of the blend provided by respective proportion (% AI; % PE) of each pesticide and polyelectrolyte using the following equation: […]
According to this formula, a positive result of more than 1 is indicative of synergy.
The complexes obtained with the method of WO2010035118, with both ratios of 2:1 and 1:5 (PAA:AI) were tested for humectancy. […] For each sample, the test was carried in triplicate.
For each sample, the test was carried in triplicate.

[3] = test system: Trifolium repens (Clover); assay: Herbicide efficacy of glyphosate on clover; assay type: in vivo
From the text: (§1) The efficacy of glyphosate is often sub-optimal because after drying of the glyphosate active ingredient on the plant tissue the rate of uptake is reduced (dry glyphosate is taken up poorly by the plant tissue). A complex of glyphosate-polycation with improved humectancy properties will remain longer as a wet film on the plant tissue, thereby enhancing uptake of glyphosate in the plant tissue and enhancing its herbicidal activity. In this experiment the effect of a formed complex on efficacy of glyphosate was assessed. The experiment was performed with hard water (500 ppm CaCO3) and with soft water (50 ppm CaCO3).
(§2) The following method was used. Seeds of rye grass and clover were sown in 2 L plastic pots (10 seeds pot) and grown in Lentse Potgrond (Horticoop; Bleiswijk, the Netherlands) in a greenhouse at 22° C. and at light 16 h and dark 8 h, humidity 75%. The experiment was carried out with 2 pots (replications) per treatment. The pots were watered as to keep the plants growing optimal. At the four-five leaf stage, when plants reached a height of 15-20 cm, they were sprayed with the glyphosate treatments with and without PAA (formulations: see Table 12). The spray was such that the plants were wetted completely and uniform. 12 days after the glyphosate treatments, the fresh weight and dry weight of the parts of the plants that were above ground were measured (grams). For dry weight, plants were first dried in an oven at 67 degree Celsius for 48 hours and weight was measured.
(§3) With the method described above rye grass plants were sprayed with two glyphosate formulations: • A. 2700 ppm glyphosate plus 270 ppm complexed with PAA at a 10:1 ratio (glyphosate:PAA; w/w) (formulation see Table 12). • B. 2700 ppm glyphosate without PAA (formulation, see Table 12).

[4] = test system: Lolium perenne (Ryegrass); assay: Herbicide efficacy of glyphosate on rye grass; assay type: in vivo; conditions: for Extra reduction in dry weight: complex formation with PAA vs without PAA, first statement of b170; for Extra reduction in dry weight (second statement): second statement of b170
From the text: as §1, §2, §3

[5] = soft water, complex formation with PAA vs without PAA

O=C(O)CNCP(=O)(O)O [Glyphosate, N-(phosphonomethyl)glycine]
Visual observation category, Active ingredient: PAA ([1]; ratio active ingredient:PAA 1.000:1 (w/w)): N | Visual observation category, Active ingredient: PAA ([1]; ratio active ingredient:PAA 1:1 (w/w)): N | Visual observation category, Active ingredient: PAA ([1]; ratio active ingredient:PAA 1:10 (w/w)): N | Visual observation category, Active ingredient: PAA ([1]; ratio active ingredient:PAA 1:100 (w/w)): N | Visual observation category, Active ingredient: PAA ([1]; ratio active ingredient:PAA 1:1000 (w/w)): N | Visual observation category, Active ingredient: PAA ([1]; ratio active ingredient:PAA 10.000:1 (w/w)): N | Interaction with the polyanion sodium lignosulfonate [2]: did not form a visible complex | Humectancy (Humectancy assay): 231.3% | Extra reduction in dry weight ([3]; hard water, complex formation with PAA (Formulation A) vs without PAA (Formulation B)): 74% | Extra reduction in fresh weight ([3]; hard water, complex formation with PAA vs without PAA): 38% | Extra reduction in dry weight [3, 5]: 47% | Extra reduction in fresh weight [3, 5]: 44% | Extra reduction in dry weight ([4]; hard water): 56% | Extra reduction in dry weight (second statement) ([4]; hard water): 48% | Extra reduction in dry weight ([4]; soft water): 44% | Extra reduction in dry weight (second statement) ([4]; soft water): 46%
